The results in this text go back to US6825223B2, “Anilide compounds and pharmaceutical compositions comprising them” (Kowa Company, Ltd., priority 1996, dated 2004).

For one test, the target named is T1, ACAT in J774 cell (Mus musculus, UniProt Q61263).
T1 construct: endogenous in cells; host or cells: J774 cells
T1 sequence (Q61263 1-540): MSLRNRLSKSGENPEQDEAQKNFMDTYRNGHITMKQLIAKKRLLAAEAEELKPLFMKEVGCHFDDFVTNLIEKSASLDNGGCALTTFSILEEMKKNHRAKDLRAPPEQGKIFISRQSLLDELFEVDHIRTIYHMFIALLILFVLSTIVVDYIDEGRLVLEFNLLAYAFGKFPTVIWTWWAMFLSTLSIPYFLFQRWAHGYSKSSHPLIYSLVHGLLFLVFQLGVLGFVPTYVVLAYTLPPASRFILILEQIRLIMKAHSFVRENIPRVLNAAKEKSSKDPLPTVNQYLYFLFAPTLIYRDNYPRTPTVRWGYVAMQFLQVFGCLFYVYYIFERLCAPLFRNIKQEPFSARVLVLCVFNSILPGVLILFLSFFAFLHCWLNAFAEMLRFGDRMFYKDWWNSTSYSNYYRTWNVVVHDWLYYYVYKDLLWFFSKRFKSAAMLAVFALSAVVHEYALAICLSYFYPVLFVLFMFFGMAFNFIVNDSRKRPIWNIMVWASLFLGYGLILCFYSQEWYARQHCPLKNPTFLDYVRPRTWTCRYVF
As to the kind of experiment: ACAT inhibiting activity in J774 cell (anti-foaming activity). The settings on record: for IC50 (HepG 2)/IC50 (J 774): ratio of the two cell IC50 values; for IC50: J774 cell, 10 μg/ml 25-OH cholesterol, 18 hours, cholesterol ester per protein, read-out: J 774 Cell-Derived Enzyme IC50. The test is classed as cell-based. The procedure: (§1) ACAT inhibiting activities in J774 cell and HepG2 cell (Anti-foaming activities).
(§2) J774 cell and HepG2 cell were sown on 24-holes-plates, and J774 cell was cultured with DMEM culturing solution (including 10% fetal bovine serum) and HepG2 cell was cultured with MEM culturing solution (including 10% fatal bovine serum) and they were incubated with 5% CO2 at 37° C. for 24 hours. […] After redwing the medium, each cultured cell was washed with PBS two ties, and then extracted with 1.5 ml of hexane:iso-propanol (3:2), and concentrated and dried. Each extracted substance was dissolved into iso-propanol including 0.2 ml of 10% Triton X-100. And total cholesterol (TC) of each was measured with Cholesterol E Test Wako (Wako Junyaku Co.), and free cholesterol […] of each was measured with Free Cholesterol E Test Wako (Wako Junyaku Co.). The residue of extracting was dissolved with 0.25 ml of 2N NaOH at 37° C. for 30 minutes, and an amount of protein was measured with BCA Protein Assay Reagent (Pierce). The amount of cholesterol ester per protein was calculated based on a difference between TC and FC, and IC50 was calculated in contrast with control.

Test [1] addresses T2, ACAT (small intestine-derived enzyme) (Oryctolagus cuniculus, UniProt G1SFD9).
T2 sequence (G1SFD9 1-524): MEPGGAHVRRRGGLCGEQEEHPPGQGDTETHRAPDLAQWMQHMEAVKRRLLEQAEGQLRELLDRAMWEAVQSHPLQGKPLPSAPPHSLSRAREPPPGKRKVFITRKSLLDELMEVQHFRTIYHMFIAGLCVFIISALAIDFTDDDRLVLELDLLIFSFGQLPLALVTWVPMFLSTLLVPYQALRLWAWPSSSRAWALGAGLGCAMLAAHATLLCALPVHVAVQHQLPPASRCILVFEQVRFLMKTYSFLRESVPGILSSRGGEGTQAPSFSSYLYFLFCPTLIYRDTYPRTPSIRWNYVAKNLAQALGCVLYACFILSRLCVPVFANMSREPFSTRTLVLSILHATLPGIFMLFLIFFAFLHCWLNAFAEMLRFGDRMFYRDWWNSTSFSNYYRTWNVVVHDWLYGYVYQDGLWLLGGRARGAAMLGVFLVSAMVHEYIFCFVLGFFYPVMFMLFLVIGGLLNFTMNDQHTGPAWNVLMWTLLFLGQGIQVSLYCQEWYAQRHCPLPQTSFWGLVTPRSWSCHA
As to the kind of experiment: ACAT inhibiting activity, small intestine-derived enzyme liquid. It counts as biochemical, rabbit. The settings on record: small intestines of rabbits fed ordinary feed; 14C-oleoyl-CoA; 37° C. 3 minutes. The procedure: (§3) Rabbits were fed with 1% cholesterol feed for 8 weeks. Microsomes were prepared from the thoracoaorta of the rabbits in an ordinary manner, and suspended in 0.15 M phosphate buffer (pH 7.4) to prepare blood vessel wall-derived enzyme liquids, Small intestine-derived enzyme liquids were prepared from the small intestines of rabbits fed with ordinary feed. […] 10 μl of the enzyme liquid was added to the resulting solution and reacted at 37° C. for 5 minutes (for small intestine-derived enzyme liquids, for 3 minutes), and thereafter 3 ml of chloroform/methanol (2/1) and 0.5 ml of 0.04 N HCl were added thereto to stop the reaction. After the reaction, lipids were extracted from the reaction mixtures. The solvent layer was concentrated to dryness, then dissolved in hexane, spotted on a TLC plate (produced by Merck), and developed thereon with a developer of hexane/ether/acetic acid (75/25/1) The radioactivity of the thus-fractionated cholesterol ester fraction was measured with BAS2000 (produced by Fuji Film).

Another test relates to ACAT in HepG2 cell. As to the kind of experiment: ACAT inhibiting activity in HepG2 cell. The test is classed as cell-based. The settings on record: 10 μg/ml 25-OH cholesterol, 18 hours, cholesterol ester per protein, read-out: HepG 2-Derived Enzyme IC50. As for the experimental part: as §1, §2
The target of test [2] is ACAT (blood vessel wall-derived enzyme) (Oryctolagus cuniculus, UniProt G1SUQ0). Kind of test: ACAT inhibiting activity, blood vessel wall-derived enzyme liquid (thoracoaorta microsomes). It counts as biochemical, rabbit. The settings on record: microsomes from thoracoaorta of rabbits fed 1% cholesterol feed; 14C-oleoyl-CoA; 37° C. 5 minutes. As for the experimental part:
as §3

Test [3] in a line: Deterioration action of cholesterol in plasma, F1B hamster on hyperfat foods. The settings on record: for inhibiting an increase (%): 4th week, against hyperfat and ordinal foods groups; for Total Cholestrol in Plasma, At the 4th Week: fed 4 weeks. The test is classed as in vivo, BIO F1B hybrid syrian hamster. As for the experimental part:
A deterioration action of cholesterol in plasma was tested with BIO F1B hybrid syrian hamster (Mark C. K. et al., Atheorosclerosis, 91 (1991) 35-49: abbreviated as FIB hamster in the following) which has an accumulation of Cholesterol in blood vessel by cholesterol load. That is 4 groups of FIB hamster (male, 8 weeks old, about 100 g weight) were made, which had five hamsters respectively, and the hamsters were fed with the below-described feeds corresponding to each group for 4 weeks. At the 4th week from beginning feed, blood of the hamsters were drawn from their jugulars; and values of total cholesterols in plasma were measured with the enzyme method.

The mark [4] stands for this setting: group (3): 0.03% compound added to hyperfat foods.
The mark [5] stands for this setting: group (4): 0.3% compound added to hyperfat foods.

As usually defined, the IC50 is the concentration needed to halve the response being measured.

Chain of ACAT (blood vessel wall-derived enzyme) (G1SUQ0 entry or part of it): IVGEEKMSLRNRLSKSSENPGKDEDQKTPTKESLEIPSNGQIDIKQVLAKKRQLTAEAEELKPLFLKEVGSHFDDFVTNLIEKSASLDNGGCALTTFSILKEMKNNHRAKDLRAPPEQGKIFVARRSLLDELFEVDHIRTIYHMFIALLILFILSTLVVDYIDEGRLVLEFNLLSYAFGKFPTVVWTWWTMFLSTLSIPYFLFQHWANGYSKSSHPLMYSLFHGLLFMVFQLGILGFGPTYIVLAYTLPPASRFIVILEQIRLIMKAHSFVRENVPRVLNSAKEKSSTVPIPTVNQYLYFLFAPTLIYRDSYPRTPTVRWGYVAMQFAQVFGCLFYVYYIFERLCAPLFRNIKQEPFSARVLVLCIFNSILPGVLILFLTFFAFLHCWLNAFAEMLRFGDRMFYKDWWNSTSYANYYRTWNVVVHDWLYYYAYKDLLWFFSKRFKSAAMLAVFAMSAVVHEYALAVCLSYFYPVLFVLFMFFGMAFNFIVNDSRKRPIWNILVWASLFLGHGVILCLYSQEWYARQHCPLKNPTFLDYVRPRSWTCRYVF

Take `CC(C)c1cccc(C(C)C)c1NC(=O)C(C)(C)CCCOc1ccc2c(c1)C=C(c1nccn1C)C(CCc1ccc(F)cc1)O2` (stereo not shown) [Control (1), 5-[2-(2-(4-fluorophenyl)ethyl)-3-(1-methyl-1H-imidazol-2-yl) -2H-benzopyran-6-yl]oxy-2,2-dimethyl-N-(2,6-diisopropylphenyl)pentanamide, reference compound]: the “IC50 (HepG 2)/IC50 (J 774)” value at ACAT in J774 cell was 9.46. Besides, the IC50 in test [1] amounted to 870 nM.

On to `CCCCCCCCCCCCCCSCC(=O)Nc1c(C(C)C)cccc1C(C)C` [Control (2), N-(2,6-diisopropylphenyl) -2-(tetradecylthio)acetamide, reference compound], for which the half-inhibitory concentration (IC50) came out at 150 nM on ACAT in J774 cell and 1400 nM in the test with ACAT in HepG2 cell.

`CCCCCCCN(CCCCCSc1nc(-c2ccccc2)c(-c2ccccc2)[nH]1)c1nc2ccccc2o1` [Control (4), N4-[5-(4,5-diphenyl-1H-imidazol-2-ylthio)pentyl]-N-heptyl-2-benzoxazolamine, reference compound]: the IC50 amounted to 26 nM in test [2], 120 nM at ACAT in J774 cell and 37 nM in test [1]. In addition, the “IC50 (HepG 2)/IC50 (J 774)” value at ACAT in J774 cell came to 6.26.

As for `CC(C)c1cccc(C(C)C)c1NC(=O)CSc1nc2ccccc2o1` [Example 1, 2-(benzoxazol-2-ylthio)-N-(2,6-diisopropylphenyl)acetamide], at ACAT in J774 cell, the IC50 was 1200 nM and the “IC50 (HepG 2)/IC50 (J 774)” value stood at 0.83. Besides, the IC50 in the test with ACAT in HepG2 cell turned out to be 1000 nM.

For `CC(C)c1cccc(C(C)C)c1NC(=O)CCSc1nc2ccccc2o1` [Example 2, 3-(benzoxazol-2-ylthio)-N-(2,6-diisopropylphenyl)propanamide], the 50% inhibitory concentration (IC50) was determined as 470 nM on ACAT in J774 cell and 1200 nM in the test with ACAT in HepG2 cell. Moreover, on ACAT in J774 cell, the “IC50 (HepG 2)/IC50 (J 774)” value amounted to 2.55.

For the molecule `CC(C)c1cccc(C(C)C)c1NC(=O)CCCCCSc1nc2ccccc2o1` [Example 5, 6-(benzoxazol-2-ylthio)-N-(2,6-diisopropylphenyl)hexanamide], the half-maximal inhibitory concentration (IC50) was found to be 10 nM in test [2] and 65 nM in test [1].

With `CC(C)c1cccc(C(C)C)c1NC(=O)CCCCCCCCSc1nc2ccccc2o1` [Example 8, 9-(benzoxazol-2-ylthio)-N-(2,6-diisopropylphenyl)nonanamide], in test [3] (setting [4]), the “inhibiting an increase (%)” value is recorded as 80.5%; the “Total Cholestrol in Plasma, Before Dosage” value turned out to be 155.5 ± 10.1 mg/dL; the “Total Cholestrol in Plasma, At the 4th Week” value stood at 398.3 ± 64.3 mg/dL. Also, in test [3] (setting [5]), the “inhibiting an increase (%)” value came out at 111.7%; the “Total Cholestrol in Plasma, Before Dosage” value is 164.3 ± 8.8 mg/dL; the “Total Cholestrol in Plasma, At the 4th Week” value amounted to 170.1 ± 18.5 mg/dL.

Take `CC(C)c1cccc(C(C)C)c1NC(=O)CSc1nc2ccccc2[nH]1` [Example 23, 2-(benzimidazol-2-ylthio)-N-(2,6-diisopropylphenyl)acetamide]: the IC50 at ACAT in J774 cell was determined as 2200 nM; in the test with ACAT in HepG2 cell it was 12000 nM. On ACAT in J774 cell, the “IC50 (HepG 2)/IC50 (J 774)” value was determined as 6.45.

As to `CC(C)c1cccc(C(C)C)c1NC(=O)CCCSc1nc2ccccc2s1` [Example 44, 4-(benzothiazol-2-ylthio)-N-(2,6-diisopropylphenyl)butanamide], at ACAT in J774 cell, the IC50 came to 5600 nM and the “IC50 (HepG 2)/IC50 (J 774)” value is reported as 0.38. In addition, the IC50 in the test on ACAT in HepG2 cell came out at 2100 nM.
